Assay results reported in PubChem BioAssay (NCI).
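Following 48 hours of exposure in 96-well plates, responses at five concentrations were used to interpolate endpoints linearly. The concentration for 50% growth inhibition is given as GI50. The concentration for full growth arrest is given as TGI.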

Key:
Experiment in all cases: NCI-60 cell line screen, 48 h
HOP-92 NSCLC = tested on: HOP-92 NSCLC
MDA-MB-231 breast = tested on: MDA-MB-231 breast
IGROV1 ovarian = tested on: IGROV1 ovarian
SF-539 CNS = tested on: SF-539 CNS
U251 CNS = tested on: U251 CNS
NCI-H460 lung = tested on: NCI-H460 lung
HL-60(TB) leukemia = tested on: HL-60(TB) leukemia
MDA-MB-435 = tested on: MDA-MB-435
UACC-62 melanoma = tested on: UACC-62 melanoma
HCC-2998 colon = tested on: HCC-2998 colon

SMILES	TGI (HOP-92 NSCLC)	TGI (MDA-MB-231 breast)	TGI (IGROV1 ovarian)	TGI (SF-539 CNS)	TGI (U251 CNS)	TGI (NCI-H460 lung)	TGI (HL-60(TB) leukemia)	TGI (MDA-MB-435)	TGI (UACC-62 melanoma)	TGI (HCC-2998 colon)	GI50 (HOP-92 NSCLC)	GI50 (MDA-MB-231 breast)	GI50 (IGROV1 ovarian)	GI50 (SF-539 CNS)	GI50 (U251 CNS)	GI50 (NCI-H460 lung)	GI50 (MDA-MB-435)	GI50 (HCC-2998 colon)	GI50 (UACC-62 melanoma)	GI50 (HL-60(TB) leukemia)
[O-][N+]1(CC[N+]2([O-])CCCCC2)CCCCC1	> 100 µM	> 100 µM	> 100 µM	> 100 µM	> 100 µM	> 100 µM	> 100 µM	> 100 µM	> 100 µM	–	–	–	–	–	–	–	–	–	–	–
CCc1cccc(C)c1NC(=O)CCc1nnc2s/c(=C\c3cccc4ccccc34)c(=O)n12	> 100 µM	–	> 100 µM	> 100 µM	> 100 µM	> 100 µM	> 100 µM	–	> 100 µM	> 100 µM	–	–	–	–	–	–	–	–	–	–
CCc1cccc(C)c1N1C(=O)C(=O)C(c2nc3ccccc3o2)C(=O)C1=O	> 100 µM	–	> 100 µM	> 100 µM	> 100 µM	> 100 µM	> 100 µM	–	> 100 µM	> 100 µM	–	–	–	–	–	–	–	–	–	–
O=C(O)c1cc(=O)c2c([nH]c3ccccc32)s1	> 100 µM	–	> 100 µM	–	–	> 100 µM	> 100 µM	–	> 100 µM	> 100 µM	–	–	–	–	–	–	–	–	–	–
O=C(Nc1ccc(F)cc1F)c1cc(Cl)ccc1O	0.942 µM	7.48 µM	> 100 µM	9.9 µM	16 µM	19.2 µM	–	8.53 µM	3.03 µM	9.51 µM	0.232 µM	1.74 µM	1.49 µM	1.01 µM	1.38 µM	1.42 µM	1.21 µM	2.97 µM	0.489 µM	–
O=c1c2cc(-c3ccccc3)sc2ncn1Cc1ccc(Cl)c(Cl)c1	40.5 µM	25 µM	34.9 µM	43 µM	38.6 µM	> 100 µM	34.1 µM	> 100 µM	28 µM	–	16.2 µM	3.92 µM	1.93 µM	14 µM	15.5 µM	12.1 µM	40.6 µM	–	13 µM	14.9 µM
C[Si](C)(c1ccc(C(=O)O)cc1)c1ccc(C(=O)O)cc1	> 100 µM	> 100 µM	> 100 µM	> 100 µM	> 100 µM	> 100 µM	–	> 100 µM	> 100 µM	–	–	–	–	–	–	–	–	–	–	–
COC(=O)C1=C(CS(=O)c2ccc([N+](=O)[O-])cc2[N+](=O)[O-])C2C=CC1C2 (stereo not given)	–	–	> 100 µM	51.2 µM	49.4 µM	> 100 µM	37.2 µM	–	42.2 µM	95.3 µM	–	–	–	–	–	–	–	–	–	–
Cc1c(C(=O)/C=C/C=C/c2ccccc2)[n+](=O)c2ccccc2n1[O-]	89.1 µM	–	65.5 µM	> 100 µM	> 100 µM	61.5 µM	> 100 µM	–	30.2 µM	36.7 µM	–	–	–	–	–	–	–	–	–	–
Cl/C(N=Nc1ccccc1)=N/Nc1ccccc1	> 100 µM	–	> 100 µM	> 100 µM	> 100 µM	> 100 µM	> 100 µM	–	–	> 100 µM	–	–	–	–	–	–	–	–	–	–
O=[N+]([O-])c1cccc(-c2nc(-c3ccccc3)c(-c3ccccc3)[nH]2)c1	–	> 100 µM	> 100 µM	> 100 µM	> 100 µM	> 100 µM	> 100 µM	> 100 µM	> 100 µM	> 100 µM	–	–	–	–	–	–	–	–	–	–
CN(C)c1nc(=NCc2ccco2)ss1	–	32.2 µM	> 100 µM	19.8 µM	67.5 µM	> 100 µM	10.6 µM	42.3 µM	> 70.5 µM	> 79.1 µM	–	–	–	–	–	–	–	–	–	–
O=c1nc(-c2ccccc2)cc(CC(O)c2ccc(Cl)c(Cl)c2)[nH]1 (stereo not given)	> 100 µM	–	> 100 µM	> 100 µM	> 100 µM	> 100 µM	76 µM	–	> 100 µM	> 100 µM	–	–	–	–	–	–	–	–	–	–
CCOc1ccc2c(c1)C(=O)c1c-2n(CCCBr)c(=O)c2cc([N+](=O)[O-])ccc12	> 100 µM	> 100 µM	–	40.9 µM	> 100 µM	91.6 µM	> 100 µM	> 100 µM	> 100 µM	> 100 µM	37.1 µM	> 100 µM	–	5.57 µM	6.13 µM	1.97 µM	30.6 µM	57.7 µM	5.73 µM	64.5 µM
CCOC(=O)CN(Cn1cncn1)Cn1cncn1	> 100 µM	–	> 100 µM	–	33.7 µM	57.1 µM	> 100 µM	–	> 100 µM	> 100 µM	–	–	–	–	–	–	–	–	–	–
CCCCCN(CCCCC)CC(O)c1cc(Cl)ccc1OC (stereo not given)	–	20 µM	15.1 µM	24.3 µM	25.5 µM	18 µM	25.9 µM	21.1 µM	25.4 µM	17.8 µM	–	5.38 µM	3 µM	10.8 µM	10.7 µM	4.7 µM	8.53 µM	5.72 µM	11.1 µM	5.05 µM
C[Si](C)(C)C(CCCCSc1ccccc1)(Sc1ccccc1)Sc1ccccc1	> 100 µM	–	–	> 100 µM	> 100 µM	> 100 µM	> 100 µM	–	> 100 µM	> 100 µM	–	–	–	–	–	–	–	–	–	–
CCC(C)Oc1nc2c(c(=O)n(C)c(=O)n2C)n1C (stereo not given)	> 100 µM	> 100 µM	> 100 µM	> 100 µM	> 100 µM	> 100 µM	> 100 µM	> 100 µM	> 100 µM	–	> 100 µM	> 100 µM	> 100 µM	> 100 µM	> 100 µM	> 100 µM	> 100 µM	–	> 100 µM	> 100 µM
CCc1ccccc1NC(=O)/C=C/c1ccccc1	–	> 100 µM	–	> 100 µM	> 100 µM	> 100 µM	–	> 100 µM	> 100 µM	> 100 µM	–	–	–	–	–	–	–	–	–	–
COC(=O)C1C(=O)CC2CCCCC21 (stereo not given)	–	–	> 100 µM	> 100 µM	> 100 µM	> 100 µM	> 100 µM	–	> 100 µM	> 100 µM	–	–	–	–	–	–	–	–	–	–
